# Data published in PMC6151569 (Molecules : A Journal of Synthetic Chemistry and Natural …, 2017).
# Read-outs that look alike come from different tables or passages of the source.
# Legend:
# [1] = mouse liver microsomes; cited from earlier work
# [2] = HLM stability test with LC-MS metabolite screening; assay type: in vitro ADME, human; conditions: for Degradation: compound remaining, AVERAGE: HLM; for compound present / remaining unmetabolized: after incubation time of 4 h with HLM; for biotransformation / degradation: after 4 h of incubation with HLM
# Procedure: Pooled human liver microsomes (adult male & female) were purchased from Merck (Schnelldorf, Germany). These microsomes were characterized in protein and CYP content. All incubations (final total volume 1050 µL) were made in the presence of an NADPH-regenerating system, consisting of 5 mM Glucose-6-phosphate, 5 U/mL Glucose-6-phosphate dehydrogenase and 1 mM NADP^+. The substrate (100 μM), the NADPH regenerating system and 4 mM MgCl2 × 6 H2O in 0.1 M Tris buffer (pH 7.4 at 37 °C) were preincubated for 5 min in an incubator at 37 °C and 750 rpm. The incubation mix was split into 50 μL aliquots and the reaction was started by addition of the HLM. Thereby the microsomal protein content was standardized to 1 mg/mL. To follow the course of metabolism, the reaction tubes were quenched at selected time points (0, 10, 20, 30, 60, 120, 180 and 240 min) by adding 100 μL internal standard at a concentration of 22.5 µM in MeCN. The samples were vortexed for 30 s and centrifuged (19,800 relative centrifugal force/4 °C/10 min). The supernatant was directly used for LC-MS analysis (for detailed LC-MS conditions, see supplementary materials). […] In all incubations, a limit of 1% organic solvent was not exceeded. […]
# Screening of Metabolites by LC-MS Analysis
# Metabolite formation was analyzed with an Alliance 2695 Separations Module (Waters GmbH, Eschborn). Sam ples maintained at 4°C, the column tem perature was set to 40°C and inj ection volume was 10 μL. The chromatographic separation for analytes 1 and ML3404 was performed on a Phenomenex Synergi Max-RP column (150 x 4.6 mm; 5 μm); LN950 and 2 on a Phenomenex Synergi Polar-RP column (150 x 4.6 mm; 5 μm) with a precolumn of the same material, respectively. An isocratic gradient of 8.5 min with 30% solvent A (90% H2O, 10% ACN, 0.1% formic acid) and 70% solvent B (ACN, 0.1% formic acid) at a flow rate of 400 μL/min was used for LN950. 1 and ML3404 were chromatographically separated by a binary gradient of 11.25 min with the equal solvents as mentioned before at a flow rate of 400 μL/min. The initial composition of 10% B was held for 20 sec, followed by a linear gradient up to 85% B in 5.8 min, holding for 30 sec, immediately changing to 10% B and reequilibrating at the end. The detection was performed on a Micromass Quattro micro triple quadrupole mass spectrometer (Waters GmbH, Eschborn) using the electrospray-ionization in the positive-mode. Correspondent to the analyte the spray voltage was set to 3.0-4.0 kV. The heated capillary o perated at 250°C and the desolvation gas flow worked at 500 L/h.
# [3] = male and female human liver microsomes; cited from earlier work
# [4] = system: LPS-stimulated TNF-α release from human whole blood; conditions: cited from earlier work
# [5] = system: LPS-stimulated TNF-α release from human whole blood; assay: HWB assay, inhibition of LPS-stimulated TNF-α release; assay type: cell-based; conditions: n = 2
# Procedure: (§1) 2-Alkylsulfanyl imidazoles 1 and 2 were evaluated in an enzyme-linked immunosorbent assay (ELISA) as well as in a fluorescence polarization (FP)-based assay for their ability to inhibit and bind to the p38α MAP kinase. Moreover, the ability of the novel compounds to inhibit the LPS-stimulated TNF-α release in HWB was tested. In this ex vivo assay, the efficacy of the inhibitors is determined more specifically with regard to pharmacokinetic characteristics such as cellular permeability and plasma protein binding.
# [6] = rat liver microsomes; cited from earlier work
# [7] = system: CYP1A2, CYP2C9, CYP2C19, CYP2D6 and CYP3A4; assay: CYP inhibition screening, statements on the whole panel; assay type: in vitro ADME, human; conditions: human
# Procedure: (§2) CYP inhibition (fluorimetric detection) assay was performed by Eurofins Panlabs Inc. (St. Charles, MO, USA) with human recombinant CYP enzyme and the appropriate CYP substrate.
# [8] = system: CYP isoforms 1A2, 2C9, 2C19, 2D6 and 3A4; assay: as above; assay type: in vitro ADME, human
# Procedure: as §2
# p38α MAP kinase [9] = molecular target: T1, p38α MAP kinase (Homo sapiens, UniProt Q16539); assay: fluorescence polarization (FP)-based binding assay; conditions: for increase in binding affinity toward p38α MAP kinase relative to the 2-alkylsulfanylimidazole counterpart: 1 vs ML3403, 2 vs LN950; for Ki: n = 3
# Procedure: as §1
# CYP2C19 = molecular target: T2, CYP2C19 (Homo sapiens, UniProt P33261); assay: CYP inhibition (fluorimetric detection) assay; assay type: in vitro ADME; conditions: recombinant human CYP2C19, read-out: (%) inhibition of CYP 2C19
# T2 construct: purchased Eurofins Panlabs Inc. (contract assay)
# Procedure: as §2
# CYP2D6 = molecular target: T3, CYP2D6 (Homo sapiens, UniProt P10635); assay: CYP inhibition (fluorimetric detection) assay; assay type: in vitro ADME; conditions: recombinant human CYP2D6, read-out: (%) inhibition of CYP 2D6
# T3 construct: purchased Eurofins Panlabs Inc. (contract assay)
# Procedure: as §2
# CYP1A2 = molecular target: T4, CYP1A2 (Homo sapiens, UniProt P05177); assay: CYP inhibition (fluorimetric detection) assay; assay type: in vitro ADME; conditions: recombinant human CYP1A2, read-out: (%) inhibition of CYP 1A2
# T4 construct: purchased Eurofins Panlabs Inc. (contract assay)
# T4 sequence (P05177 1-516): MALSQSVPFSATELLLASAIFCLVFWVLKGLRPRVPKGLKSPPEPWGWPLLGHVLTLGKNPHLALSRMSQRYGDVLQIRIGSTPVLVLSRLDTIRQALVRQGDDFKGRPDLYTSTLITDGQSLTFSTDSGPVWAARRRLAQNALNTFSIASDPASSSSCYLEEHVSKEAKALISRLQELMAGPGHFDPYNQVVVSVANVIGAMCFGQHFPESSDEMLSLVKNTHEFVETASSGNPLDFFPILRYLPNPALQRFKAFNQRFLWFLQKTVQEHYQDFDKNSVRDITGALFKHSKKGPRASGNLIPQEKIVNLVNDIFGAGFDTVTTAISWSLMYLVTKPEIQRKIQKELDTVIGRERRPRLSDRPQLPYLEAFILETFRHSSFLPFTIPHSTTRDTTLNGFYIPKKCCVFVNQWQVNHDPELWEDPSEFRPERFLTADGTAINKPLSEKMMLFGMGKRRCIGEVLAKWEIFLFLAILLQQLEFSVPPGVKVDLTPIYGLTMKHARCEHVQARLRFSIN
# Procedure: as §2
# CYP2C9 = molecular target: T5, CYP2C9 (Homo sapiens, UniProt P11712); assay: CYP inhibition (fluorimetric detection) assay; assay type: in vitro ADME; conditions: recombinant human CYP2C9, read-out: (%) inhibition of CYP 2C9
# T5 construct: purchased Eurofins Panlabs Inc. (contract assay)
# Procedure: as §2
# CYP3A4 = molecular target: T6, CYP3A4 (Homo sapiens, UniProt P08684); assay: CYP inhibition (fluorimetric detection) assay; assay type: in vitro ADME; conditions: recombinant human CYP3A4, read-out: (%) inhibition of CYP 3A4
# T6 construct: purchased Eurofins Panlabs Inc. (contract assay)
# Procedure: as §2
# p38α MAP kinase [10] = molecular target: T1, p38α MAP kinase; assay: ELISA assay, inhibition of p38α MAP kinase; assay type: biochemical; conditions: for IC50: n = 3
# Procedure: as §1
# p38α MAP kinase [11] = molecular target: T1, p38α MAP kinase; conditions: read-out: FP Assay p38α Ki; cited from earlier work
# p38α MAP kinase [12] = molecular target: T1, p38α MAP kinase; conditions: metabolite of ML3403; cited from earlier work
# T3 sequence (P10635 whole entry): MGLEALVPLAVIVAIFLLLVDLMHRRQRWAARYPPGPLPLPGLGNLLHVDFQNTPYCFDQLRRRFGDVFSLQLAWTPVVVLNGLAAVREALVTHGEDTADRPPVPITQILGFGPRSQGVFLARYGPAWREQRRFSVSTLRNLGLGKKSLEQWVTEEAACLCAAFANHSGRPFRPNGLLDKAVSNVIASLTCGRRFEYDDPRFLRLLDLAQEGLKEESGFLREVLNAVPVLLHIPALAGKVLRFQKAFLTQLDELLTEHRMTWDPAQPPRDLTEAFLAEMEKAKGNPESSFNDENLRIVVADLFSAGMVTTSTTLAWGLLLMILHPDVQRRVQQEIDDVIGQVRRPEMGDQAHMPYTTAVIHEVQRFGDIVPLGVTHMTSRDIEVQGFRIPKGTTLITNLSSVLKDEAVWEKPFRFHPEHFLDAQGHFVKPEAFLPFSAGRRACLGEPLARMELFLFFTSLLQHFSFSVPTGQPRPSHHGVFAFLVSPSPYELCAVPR
# T5 sequence (P11712 whole entry): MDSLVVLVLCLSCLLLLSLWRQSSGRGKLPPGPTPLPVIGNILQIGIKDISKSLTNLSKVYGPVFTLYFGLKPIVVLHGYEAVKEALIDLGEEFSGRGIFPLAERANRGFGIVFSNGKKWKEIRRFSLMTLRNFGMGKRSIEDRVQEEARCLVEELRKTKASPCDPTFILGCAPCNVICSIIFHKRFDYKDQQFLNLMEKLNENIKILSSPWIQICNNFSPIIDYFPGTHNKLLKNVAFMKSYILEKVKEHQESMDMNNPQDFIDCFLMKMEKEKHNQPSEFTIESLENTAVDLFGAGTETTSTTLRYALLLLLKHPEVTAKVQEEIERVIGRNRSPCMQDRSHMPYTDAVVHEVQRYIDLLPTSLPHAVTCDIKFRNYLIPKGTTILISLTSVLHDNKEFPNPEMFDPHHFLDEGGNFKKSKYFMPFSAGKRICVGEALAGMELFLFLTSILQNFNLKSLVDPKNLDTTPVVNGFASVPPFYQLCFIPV
# T2 sequence (P33261 whole entry): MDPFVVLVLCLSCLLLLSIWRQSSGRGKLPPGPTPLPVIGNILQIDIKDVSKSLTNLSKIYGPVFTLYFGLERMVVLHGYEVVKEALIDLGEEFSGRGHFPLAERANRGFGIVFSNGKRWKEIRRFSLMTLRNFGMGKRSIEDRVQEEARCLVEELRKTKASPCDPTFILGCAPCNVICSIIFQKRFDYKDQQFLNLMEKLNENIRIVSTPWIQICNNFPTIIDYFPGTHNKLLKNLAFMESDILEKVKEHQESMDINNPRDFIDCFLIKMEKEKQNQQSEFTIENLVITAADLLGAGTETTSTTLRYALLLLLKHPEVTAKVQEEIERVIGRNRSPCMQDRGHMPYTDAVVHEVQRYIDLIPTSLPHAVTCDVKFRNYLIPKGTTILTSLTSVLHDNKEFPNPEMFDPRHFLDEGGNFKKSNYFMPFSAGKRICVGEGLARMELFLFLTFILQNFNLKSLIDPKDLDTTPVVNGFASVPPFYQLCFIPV
# T1 sequence (Q16539 whole entry): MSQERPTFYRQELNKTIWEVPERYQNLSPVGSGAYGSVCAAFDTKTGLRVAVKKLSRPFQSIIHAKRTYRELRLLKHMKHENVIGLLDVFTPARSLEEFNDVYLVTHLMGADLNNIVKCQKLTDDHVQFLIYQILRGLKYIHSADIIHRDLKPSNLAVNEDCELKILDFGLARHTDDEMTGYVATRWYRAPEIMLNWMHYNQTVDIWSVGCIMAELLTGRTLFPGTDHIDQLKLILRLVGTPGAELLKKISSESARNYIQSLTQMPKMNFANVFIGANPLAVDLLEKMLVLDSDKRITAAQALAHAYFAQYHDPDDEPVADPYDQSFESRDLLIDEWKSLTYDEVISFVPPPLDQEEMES
# T6 sequence (P08684 whole entry): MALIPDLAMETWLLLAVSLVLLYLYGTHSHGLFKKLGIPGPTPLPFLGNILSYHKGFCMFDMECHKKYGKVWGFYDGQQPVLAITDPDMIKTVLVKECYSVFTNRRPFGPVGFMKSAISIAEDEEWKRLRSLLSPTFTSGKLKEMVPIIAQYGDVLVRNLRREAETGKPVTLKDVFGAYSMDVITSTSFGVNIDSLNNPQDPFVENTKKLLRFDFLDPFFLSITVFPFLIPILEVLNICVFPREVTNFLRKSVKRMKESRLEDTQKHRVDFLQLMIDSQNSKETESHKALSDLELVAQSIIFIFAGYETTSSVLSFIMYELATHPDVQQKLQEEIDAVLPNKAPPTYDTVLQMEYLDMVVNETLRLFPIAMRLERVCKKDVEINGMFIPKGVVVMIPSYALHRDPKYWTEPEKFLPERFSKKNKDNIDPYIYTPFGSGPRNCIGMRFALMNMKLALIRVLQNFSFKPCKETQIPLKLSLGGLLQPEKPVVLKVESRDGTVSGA
"Degradation: compound remaining, AVERAGE ([2]; 0 min) [%]","Degradation: compound remaining, AVERAGE ([2]; 10 min) [%]","Degradation: compound remaining, AVERAGE ([2]; 20 min) [%]","Degradation: compound remaining, AVERAGE ([2]; 30 min) [%]","Degradation: compound remaining, AVERAGE ([2]; 60 min) [%]","Degradation: compound remaining, AVERAGE ([2]; 120 min) [%]","Degradation: compound remaining, AVERAGE ([2]; 180 min) [%]","Degradation: compound remaining, AVERAGE ([2]; 240 min) [%]",compound present / remaining unmetabolized [2],IC50 [5] [nM],inhibition at 10 µM [7] [%],increase in binding affinity toward p38α MAP kinase relative to the 2-alkylsulfanylimidazole counterpart (p38α MAP kinase [9]) [fold],Ki (p38α MAP kinase [9]) [nM],biotransformation / degradation [2] [%],inhibition at 10 µM (CYP2C19) [%],inhibition at 10 µM (CYP2D6) [%],inhibition at 10 µM (CYP1A2) [%],inhibition at 10 µM (CYP2C9) [%],inhibition at 10 µM (CYP3A4) [%],IC50 (p38α MAP kinase [10]) [nM],Structure (SMILES),further results
100.00,80.59,68.97,57.93,42.80,31.72,24.06,16.25,less than 20%,2980 ± 874,,,,,,,,,,,"CSc1nc(-c2ccnc(NC(C)c3ccccc3)c2)c(-c2ccc(F)cc2)[nH]1 (stereo not shown) [ML3403, 4-(5-(4-fluorophenyl)-2-(methylthio)-1H-imidazol-4-yl)-N-(1-phenylethyl)pyridin-2-amine, reference compound]","in vitro half-life [1]: 5.9 min; half-life at 100 µM ([2]; both sexes, human, pooled human liver microsomes, pH 7.4, pooled HLM, this study, read-out: in vitro half-life (converted)): 51.6 min; in vitro half-life [3]: 32.7 min; IC50 ([4]; printed in Figure 1, known inhibitors, read-out: IC50 (TNF-α)): 2700 nM; in vitro half-life [6]: 11.4 min"
100.00,97.15,93.57,91.84,91.99,91.57,90.42,89.73,,32 ± 1,> 60,4,1 ± 0.2,10,83.6,78.8,69.4,61.9,92.1,11 ± 5,"CC(C)C(C)Nc1cc(-c2[nH]c(CCCO)nc2-c2ccc(F)cc2)ccn1 (stereo not shown) [compound 2, 3-(4-(4-Fluorophenyl)-5-(2-((3-methylbutan-2-yl)amino)pyridin-4-yl)-1H-imidazol-2-yl)propan-1-ol]",CYP test concentration of 10 µM relative to the IC50 value in the kinase activity assay [8]: ~1000 fold; more active than reference compound ML3403 (p38α MAP kinase [10]; p38α MAP kinase): 3.6 fold
100.00,86.86,77.42,61.96,51.99,37.23,32.10,28.49,,,,,,> 70,63,41.5,28,91.5,61,,"CC(C)C(C)Nc1cc(-c2nc(SCCO)[nH]c2-c2ccc(F)cc2)ccn1 (stereo not shown) [LN950, 2-((5-(4-fluorophenyl)-4-(2-((3-methylbutan-2-yl)amino)pyridin-4-yl)-1H-imidazol-2-yl)thio)ethan-1-ol, reference compound]","Ki (p38α MAP kinase [11]): 4 ± 1 nM; IC50 ([4]; LPS-stimulated human whole blood, read-out: HWB Assay TNF-α IC50): 37 ± 4 nM"
100.00,92.72,89.75,87.96,86.27,83.65,80.90,79.75,up to 80%,2539 ± 20,> 70,4,11 ± 3,20,71,90.2,85.6,85.1,97.6,25 ± 2,"CCc1nc(-c2ccc(F)cc2)c(-c2ccnc(NC(C)c3ccccc3)c2)[nH]1 (stereo not shown) [compound 1, 4-(2-Ethyl-4-(4-fluorophenyl)-1H-imidazol-5-yl)-N-(1-phenylethyl)pyridin-2-amine]",
,,,,,,,,,,,,,,,,,,,,CC(Nc1cc(-c2nc([S+](C)[O-])[nH]c2-c2ccc(F)cc2)ccn1)c1ccccc1 (stereo not shown) [ML3603],activity on p38α MAP kinase (p38α MAP kinase [12]): active
